# Columns and labels:
# [1] = Drug concentration in Wistar rat plasma at 10 mg/kg, po measured after 30 mins by LC-MS/MS method; assay type: ADME, organism-based
# [2] = Drug concentration in Wistar rat brain at 10 mg/kg, po measured after 30 mins by LC-MS/MS method; assay type: ADME, organism-based; settings: in vivo, 0.5 h
smiles,measurement,setting,value
CN(C)c1cnn2ccc(N3CCOCC3)nc12,concentration at 0.5 h,[1],> 2000 nM
same,Drug uptake,[2],Active

# Reference: ChEMBL document CHEMBL5625211, “Neutral sphingomyelinase 2 inhibitors based on the pyrazolo[1,5-a]pyrimidin-3-amine scaffold” (Eur J Med Chem, 2023)
